Common to all, as to type: functional, cell-based
The test system of one experiment is SF-268. In words: Cytotoxicity against human SF268 cells by SRB method. A general note: Sulforhodamine B stains cellular protein and so reports cell mass.
For a further experiment, the system named is MCF7. Description: Cytotoxicity against human MCF7 cells by SRB method.
Another experiment concerns HepG2. Description: Cytotoxicity against human HepG2 cells by SRB method.
Another experiment concerns NCI-H460. In words: Cytotoxicity against human NCI-H460 cells by SRB method.

Structures are written as SMILES. A value given as a limit tells only on which side of the number the result lay.

Consider `CN1C(=O)[C@]23SSS[C@]1(CO)C(=O)N2[C@H]1Nc2ccccc2[C@@]1(c1c[nH]c2ccccc12)[C@@H]3O`, for which the IC50 (commonly the point on the concentration scale where inhibition reaches its midpoint) in the experiment with SF-268 was found to be 1.04 µM; in the experiment with MCF7, 0.91 µM; in the experiment with HepG2 it was 3.52 µM; in the experiment with NCI-H460 it was 5.6 µM.

As to `C[C@H]1C(=O)N[C@@H](Cc2c[nH]c3ccccc23)C(=O)N1C`, the IC50 in the experiment with SF-268, in the experiment on MCF7, in the experiment with HepG2 and with NCI-H460 was more than 100 µM in each case.

As to `CN1C(=O)[C@@]23C[C@@]4(c5c[nH]c6ccccc56)c5ccccc5N[C@@H]4N2C(=O)[C@]1(CO)SSS3` [LUTEOALBUSIN B], the IC50 with SF-268 turned out to be 0.59 µM; in the experiment on MCF7, 0.25 µM; in the experiment on HepG2, 1.29 µM; with NCI-H460, 1.31 µM.

Regarding `C[C@@H]1NC(=O)[C@H](Cc2c[nH]c3ccccc23)NC1=O`, the IC50 with SF-268, in the experiment with MCF7, in the experiment with HepG2 and with NCI-H460 was more than 100 µM throughout.

On to `CN1C(=O)[C@@]23C[C@@]4(c5c[nH]c6ccccc56)c5ccccc5N[C@@H]4N2C(=O)[C@]1(CO)SS3` [LUTEOALBUSIN A], for which the IC50 is 0.46 µM in the experiment with SF-268, 0.23 µM in the experiment on MCF7, 0.91 µM in the experiment with HepG2 and 1.15 µM with NCI-H460.

Take `CN1C(=O)[C@]23SSS[C@@]1(C)C(=O)N2[C@H]1Nc2ccccc2[C@]1(c1c[nH]c2ccccc12)[C@@H]3O`: the IC50 in the experiment on SF-268 amounted to 2.49 µM; in the experiment with MCF7, 0.65 µM; with HepG2 it was 2.03 µM; with NCI-H460, 17.8 µM.

On to `CS[C@]1(CO)NC(=O)[C@](Cc2c[nH]c3ccccc23)(SC)NC1=O` [CHETOSEMINUDIN C], for which the IC50 with SF-268, in the experiment on MCF7, in the experiment with HepG2 and in the experiment with NCI-H460 was more than 100 µM in each case.

As to `CN1C(=O)[C@]23SS[C@@]1(C)C(=O)N2[C@H]1Nc2ccccc2[C@]1(c1c[nH]c2ccccc12)[C@@H]3O`, the half-maximal inhibitory concentration (IC50) came to 0.73 µM in the experiment on SF-268, 0.23 µM with MCF7, 0.53 µM in the experiment with HepG2 and 6.57 µM in the experiment with NCI-H460.

For the molecule `CS[C@]1(Cc2c[nH]c3ccccc23)NC(=O)[C@](CO)(SC)N(C)C1=O` [CHETOSEMINUDIN B], the IC50 in the experiment with SF-268, in the experiment with MCF7, in the experiment with HepG2 and in the experiment on NCI-H460 was more than 100 µM throughout.

With `O=C1N[C@@H](Cc2c[nH]c3ccccc23)C(=O)N[C@H]1CO`, the IC50 in the experiment on SF-268, with MCF7, with HepG2 and in the experiment on NCI-H460 was more than 100 µM each time.

These data come from ChEMBL document CHEMBL2203213, “Cytotoxic indole diketopiperazines from the deep sea-derived fungus Acrostalagmus luteoalbus SCSIO F457” (Bioorg Med Chem Lett, 2012).
